Measured values: ChEMBL document CHEMBL1127581, “Evolution of a novel series of [(N,N-dimethylamino)propyl]- and piperazinylbenzanilides as the first selective 5-HT1D antagonists” (J Med Chem, 1994)

Assays:
[1] = target: 5-hydroxytryptamine receptor 4 (Homo sapiens, UniProt Q13639); test: Binding affinity against 5-hydroxytryptamine 4 receptor
[2] = target: T1, 5-hydroxytryptamine receptor 1A (Rattus norvegicus, UniProt P19327); test: Binding affinity towards 5-hydroxytryptamine 1A receptor in rat hippocampus with [3H]8-OH-DPAT; format: tissue-based
T1 sequence (P19327 whole entry): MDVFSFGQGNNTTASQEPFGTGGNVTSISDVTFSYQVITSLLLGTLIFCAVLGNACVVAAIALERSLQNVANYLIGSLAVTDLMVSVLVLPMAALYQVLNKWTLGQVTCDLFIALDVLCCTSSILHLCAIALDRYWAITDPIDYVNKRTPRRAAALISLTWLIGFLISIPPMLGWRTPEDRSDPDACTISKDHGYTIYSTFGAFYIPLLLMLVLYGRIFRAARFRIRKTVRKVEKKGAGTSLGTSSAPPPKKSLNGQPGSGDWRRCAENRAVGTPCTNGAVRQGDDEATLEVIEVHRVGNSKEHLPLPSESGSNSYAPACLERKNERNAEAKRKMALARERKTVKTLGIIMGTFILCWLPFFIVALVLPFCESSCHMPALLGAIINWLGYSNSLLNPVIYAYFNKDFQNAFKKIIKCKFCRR

[3] = target: 5-hydroxytryptamine receptor 1D (Cavia porcellus) (UniProt Q60484); test: Oral effective dose against hypothermia in the guinea pig caused by stimulation of central 5-hydroxytryptamine 1D receptors by the agonist GR-46611;range is 0.2-0.4; format: functional
5-hydroxytryptamine receptor 1D (Cavia porcellus), sequence (Q60484 whole entry): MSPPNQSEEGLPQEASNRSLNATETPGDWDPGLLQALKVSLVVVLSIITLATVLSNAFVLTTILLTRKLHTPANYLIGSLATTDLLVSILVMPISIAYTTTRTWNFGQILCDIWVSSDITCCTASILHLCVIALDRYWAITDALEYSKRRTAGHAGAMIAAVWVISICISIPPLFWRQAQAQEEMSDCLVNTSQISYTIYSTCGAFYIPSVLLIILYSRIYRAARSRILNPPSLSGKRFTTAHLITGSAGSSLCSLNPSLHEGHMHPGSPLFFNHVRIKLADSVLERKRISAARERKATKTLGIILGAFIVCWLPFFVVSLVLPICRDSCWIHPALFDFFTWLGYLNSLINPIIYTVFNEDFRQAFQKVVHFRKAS

[4] = target: 5-hydroxytryptamine receptor 1B (Rattus norvegicus, UniProt P28564); test: In vitro binding affinity towards 5-hydroxytryptamine 1B receptor in rat striatal membrane with [125I]- iodocyanopindolol; format: cell membranes, Striatum
5-hydroxytryptamine receptor 1B, sequence (P28564 whole entry): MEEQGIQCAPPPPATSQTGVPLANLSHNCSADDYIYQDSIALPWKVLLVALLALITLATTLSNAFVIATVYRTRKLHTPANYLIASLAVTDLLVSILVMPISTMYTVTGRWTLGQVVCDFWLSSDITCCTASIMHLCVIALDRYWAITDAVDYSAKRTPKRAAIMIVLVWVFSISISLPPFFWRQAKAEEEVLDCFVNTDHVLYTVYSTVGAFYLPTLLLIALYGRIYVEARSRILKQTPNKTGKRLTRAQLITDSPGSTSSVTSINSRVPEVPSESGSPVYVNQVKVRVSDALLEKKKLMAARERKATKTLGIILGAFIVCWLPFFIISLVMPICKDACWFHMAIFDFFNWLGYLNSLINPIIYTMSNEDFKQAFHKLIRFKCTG

[5] = target: Serotonin 3 (5-HT3) receptor; test: Binding affinity against the 5-hydroxytryptamine 3 receptor; format: protein-complex assay
[6] = target: D(2) dopamine receptor (Homo sapiens, UniProt P14416); test: Binding affinity against dopamine D2 receptor
D(2) dopamine receptor, sequence (P14416 whole entry): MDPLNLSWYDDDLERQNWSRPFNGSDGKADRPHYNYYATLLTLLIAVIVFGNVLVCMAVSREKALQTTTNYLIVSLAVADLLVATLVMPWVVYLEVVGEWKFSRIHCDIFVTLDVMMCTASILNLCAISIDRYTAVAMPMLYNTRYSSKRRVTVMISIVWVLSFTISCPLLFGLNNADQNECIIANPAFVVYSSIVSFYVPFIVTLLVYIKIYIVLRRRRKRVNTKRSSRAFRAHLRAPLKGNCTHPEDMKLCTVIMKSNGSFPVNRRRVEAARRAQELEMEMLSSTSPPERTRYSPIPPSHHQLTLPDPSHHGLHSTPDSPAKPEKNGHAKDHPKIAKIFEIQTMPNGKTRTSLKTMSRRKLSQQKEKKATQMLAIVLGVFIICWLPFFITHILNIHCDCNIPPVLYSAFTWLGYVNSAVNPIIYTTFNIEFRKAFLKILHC

[7] = target: Muscarinic acetylcholine receptor M3 (Homo sapiens, UniProt P20309); test: Binding affinity against muscarinic M3 receptor
Muscarinic acetylcholine receptor M3, sequence (P20309 whole entry): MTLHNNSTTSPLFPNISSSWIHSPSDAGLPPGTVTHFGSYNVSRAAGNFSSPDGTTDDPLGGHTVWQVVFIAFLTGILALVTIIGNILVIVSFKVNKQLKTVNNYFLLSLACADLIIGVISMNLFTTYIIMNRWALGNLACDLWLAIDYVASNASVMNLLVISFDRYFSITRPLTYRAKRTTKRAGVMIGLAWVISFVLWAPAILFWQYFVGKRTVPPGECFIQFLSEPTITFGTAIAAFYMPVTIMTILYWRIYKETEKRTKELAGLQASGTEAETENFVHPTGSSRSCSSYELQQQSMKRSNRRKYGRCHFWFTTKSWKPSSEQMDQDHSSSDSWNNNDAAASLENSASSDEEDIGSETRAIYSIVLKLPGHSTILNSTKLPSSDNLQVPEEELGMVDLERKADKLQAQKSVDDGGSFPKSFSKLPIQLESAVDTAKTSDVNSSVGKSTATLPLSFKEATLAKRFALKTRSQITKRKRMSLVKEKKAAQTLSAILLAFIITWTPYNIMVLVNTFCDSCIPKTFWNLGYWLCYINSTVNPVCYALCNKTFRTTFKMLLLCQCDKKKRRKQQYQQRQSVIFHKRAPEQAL

[8] = target: T2, Muscarinic acetylcholine receptor M2 (Homo sapiens, UniProt P08172); test: Binding affinity against muscarinic M2 receptor
T2 sequence (P08172 whole entry): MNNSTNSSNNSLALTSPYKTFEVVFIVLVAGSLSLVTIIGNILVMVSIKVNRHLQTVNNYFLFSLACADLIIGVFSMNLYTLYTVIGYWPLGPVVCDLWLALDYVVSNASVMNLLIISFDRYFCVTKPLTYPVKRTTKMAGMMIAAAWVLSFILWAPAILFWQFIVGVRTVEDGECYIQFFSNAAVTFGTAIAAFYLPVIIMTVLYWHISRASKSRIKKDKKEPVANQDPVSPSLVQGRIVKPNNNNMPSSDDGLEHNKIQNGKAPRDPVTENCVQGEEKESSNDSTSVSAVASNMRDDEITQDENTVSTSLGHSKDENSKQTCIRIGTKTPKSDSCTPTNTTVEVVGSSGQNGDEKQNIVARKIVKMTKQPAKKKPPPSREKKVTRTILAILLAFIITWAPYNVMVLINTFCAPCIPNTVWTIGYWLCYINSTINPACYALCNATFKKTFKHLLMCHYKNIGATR

[9] = target: T3, Muscarinic acetylcholine receptor M1 (Homo sapiens, UniProt P11229); test: Binding affinity against muscarinic M1 receptor
T3 sequence (P11229 whole entry): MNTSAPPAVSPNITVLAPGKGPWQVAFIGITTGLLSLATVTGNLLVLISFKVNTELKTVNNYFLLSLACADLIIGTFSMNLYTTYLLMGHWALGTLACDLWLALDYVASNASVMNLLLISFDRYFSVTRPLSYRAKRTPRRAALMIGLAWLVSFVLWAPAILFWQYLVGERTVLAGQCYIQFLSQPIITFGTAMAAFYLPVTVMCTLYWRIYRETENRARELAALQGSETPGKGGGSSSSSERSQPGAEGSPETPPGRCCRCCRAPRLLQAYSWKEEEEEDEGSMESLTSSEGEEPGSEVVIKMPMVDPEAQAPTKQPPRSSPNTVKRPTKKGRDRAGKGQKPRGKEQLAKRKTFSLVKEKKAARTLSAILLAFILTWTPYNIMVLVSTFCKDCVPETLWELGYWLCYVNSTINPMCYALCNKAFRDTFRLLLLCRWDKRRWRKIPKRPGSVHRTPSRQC

[10] = organism: Canis familiaris; settings: Canis lupus familiaris; Saphenous vein; filed as antagonist

5-hydroxytryptamine receptor 4, sequence (Q13639 whole entry): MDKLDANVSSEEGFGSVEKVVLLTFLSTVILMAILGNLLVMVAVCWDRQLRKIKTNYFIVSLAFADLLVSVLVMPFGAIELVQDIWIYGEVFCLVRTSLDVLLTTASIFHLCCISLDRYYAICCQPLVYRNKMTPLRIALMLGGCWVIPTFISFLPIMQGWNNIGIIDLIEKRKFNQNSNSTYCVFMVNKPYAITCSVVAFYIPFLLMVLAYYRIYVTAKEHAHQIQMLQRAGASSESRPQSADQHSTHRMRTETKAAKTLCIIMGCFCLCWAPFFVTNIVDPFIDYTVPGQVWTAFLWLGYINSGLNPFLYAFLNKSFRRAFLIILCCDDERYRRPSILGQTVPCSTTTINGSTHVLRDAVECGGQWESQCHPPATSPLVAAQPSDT

- Ki [1]: > 10000 nM
- Ki [2]: 316 nM
- ED50 [3]: 0.3 mg/kg
- Ki [4]: 3.16 nM
- Log Ki [5]: -5.2
- Ki [6]: > 10000 nM
- Ki [7]: > 1000 nM
- Ki [8]: > 1000 nM
- Ki [9]: > 1000 nM
SMILES: COc1ccc(NC(=O)c2ccc(-c3ccc(-c4noc(C)n4)cc3C)cc2)cc1N1CCN(C)CC1 [GR-127935]
- pKB [10]: Antagonist
